From US4271155A, “Water soluble hydrazones of 3-formylrifamycin SV, antibacterial compositions thereof and method of use thereof” (Gruppo Lepetit S.p.A., priority 1979, dated 1981)
Where two headings read alike, the source gives them in different places.

Assays:
[1] = solubility in water / aqueous vehicles; type: physicochemical
Source text: The new rifamycins of formula I are in fact completely soluble in water or in mixture of water with other pharmaceutically acceptable solvents mixable with water. Useful solvents which can be admixed with water are for instance the polyhydric aliphatic alcohols such as ethylene glycol, propylene glycol, glycerine and mixtures thereof. These solutions can be added with buffers to maintain the pH range at a physiological value. For instance, ten grams of the compound of formula I wherein R is methyl, X is [drawing 3] are completely soluble in 100 ml of water buffered at pH 7.38 (phosphate buffer). The corresponding compound wherein A and B are both the sodium cation is even more soluble; in fact 100 ml of water can dissolve about fifty grams of said compound.

[2] = system: Staphylococcus aureus Tour; experiment: ED50 in mice infected with Staphylococcus aureus Tour; type: in vivo; conditions: sc
Source text: (§1) The values of the ED50 of the compounds of examples 2, 3 and 4 against the two microbial strains and the toxicity (LD50) of the compounds are reported in the following Table

Escherichia coli = experiment: ED50 in mice infected with Escherichia coli; type: in vivo; conditions: sc, read-out: ED50, E. coli
Source text: as §1

toxicity (LD50) in mice = conditions: mouse, in vivo
Source text: as §1

[3] = ip, read-out: LD50 in mice, i.p.
[4] = iv, read-out: LD50 in mice, i.v.

| Compound | completely soluble in 100 ml of water ([1]; per 100 ml of water buffered at pH 7.38 (phosphate buffer)) | amount that 100 ml of water can dissolve ([1]; per 100 ml of water, A and B both sodium cation) | ED50 [2] | ED50 (Escherichia coli) | LD50 (toxicity (LD50) in mice; [3]) | LD50 (toxicity (LD50) in mice; [4]) |
| --- | --- | --- | --- | --- | --- | --- |
| COC1C=COC2(C)Oc3c(C)c(O)c4c(O)c(c(C=NN(C)CC(C)OP(=O)(O)O)c(O)c4c3C2=O)NC(=O)C(C)=CC=CC(C)C(O)C(C)C(O)C(C)C(OC(C)=O)C1C (centres unmarked) [listing 1 of 2 here] | ten | – | – | – | – | – |
| COC1C=COC2(C)Oc3c(C)c(O)c4c(O)c(c(C=NN(C)CC(C)OP(=O)(O)O)c(O)c4c3C2=O)NC(=O)C(C)=CC=CC(C)C(O)C(C)C(O)C(C)C(OC(C)=O)C1C (centres unmarked) [listing 2 of 2 here] | – | about fifty | – | – | – | – |
| COC1C=COC2(C)Oc3c(C)c(O)c4c(O)c(c(C=NN(C)CC(C)OP(=O)(O)O)c(O)c4c3C2=O)NC(=O)C(C)=CC=CC(C)C(O)C(C)C(O)C(C)C(OC(C)=O)C1C (centres unmarked) [Example 2, 3-[[[2-(Phosphonoxy)propyl]methylhydrazino]methyl]rifamycin SV] | – | – | 0.812 mg/kg | 98.5 mg/kg | 770 mg/kg | 665 mg/kg |
| CCC(CN(C)N=Cc1c2c(O)c3c(O)c(C)c4c(c3c1O)C(=O)C(C)(OC=CC(OC)C(C)C(OC(C)=O)C(C)C(O)C(C)C(O)C(C)C=CC=C(C)C(=O)N2)O4)OP(=O)(O)O (centres unmarked) [Example 3, 3-[[[2-(Phosphonoxy)butyl]methylhydrazono]methyl]rifamycin SV] | – | – | 0.812 mg/kg | 130 mg/kg | > 500 mg/kg | 525 mg/kg |
| COC1C=COC2(C)Oc3c(C)c(O)c4c(O)c(c(C=NN(C)CCOP(=O)(O)O)c(O)c4c3C2=O)NC(=O)C(C)=CC=CC(C)C(O)C(C)C(O)C(C)C(OC(C)=O)C1C (centres unmarked) [Example 4, 3-[[[2-(Phosphonoxy)ethyl]methylhydrazono]methyl]rifamycin SV] | – | – | 1.51 mg/kg | 106 mg/kg | 592 mg/kg | 507 mg/kg |
